≈ marks a conversion by molar mass, not a printed value. Non-standard residues stand in square brackets, D forms with d. Residues, ends and D or L forms follow the SMILES beside them. Nspe = C[C@H](NCC(=O)O)c1ccccc1; Nphe = O=C(O)CNCc1ccccc1; Nlys = NCCCCNCC(=O)O
Key:
[1] = system: red blood cells; assay: Hemolytic activity on red blood cells; type: cell-based, mouse
Protocol: In order to identify, through red blood cell hemolytic activity in mice, whether the peptoids synthesized in Preparation Example 1 are cytotoxic, red blood cells isolated from 10 mL of mouse blood were washed three times with phosphate-buffered saline (PBS, mixed solution of 35 mM phosphate buffer/150 mM NaCl, pH 7.4), and then centrifuged at a centrifugal force of 1,000 ×g for 10 minutes. A 10% (v/v) red blood cell solution diluted with PBS was dispensed into a 96-well microtiter plate at 150 μL each, and then a peptide solution was added at 50 μL each. Thereafter, the 96-well microtiter plate was incubated at a temperature of 37° C. for 1 hour.
The incubated 96-well microtiter plate was centrifuged at a centrifugal force of 1,000×g for 5 minutes. Thereafter, supernatant was taken at 100 μL each and transferred to a new 96-well microtiter plate. Then, absorbance at a wavelength of 540 nm was measured (Table 6).
In this case, a value obtained in a case of being treated with 0.1% (v/v) Triton X-100 was set as 100% hemolysis, and hemolytic activity (degree of cell destruction) of the peptoids was calculated using the following Equation 1. In the Equation 1, A is absorbance of the peptoid solution at a wavelength of 540 nm, B is absorbance of 0.1% Triton X-100 at a wavelength of 540 nm, and C is absorbance of the PBS solution at a wavelength of 540 nm. In this case, Peptoid NO. […] Degree of cell destruction (% hemolysis)=(A−C)/(B−C)[…] [Equation 1]
In Table 6, HD10 means a peptoid concentration which causes 10% hemolysis of red blood cells, and HD50 means a peptoid concentration which causes 50% hemolysis of red blood cells. In addition, Hmax is a hemolysis rate (%) at 200 μM which is the highest peptoid concentration used in the experiment.
Hemolytic activity of Peptoid NOS. 1, 18 to 23, and the peptide Pexiganan was measured in the same manner as in Experimental Example 2.

[2] = system: P. aeruginosa (PA01); assay: MIC in multidrug-resistant bacteria panel, modified microdilution; type: cell-based; details: overnight, 37° C.
Protocol: (§1) Minimum inhibitory concentrations of the prepared peptoids for multidrug-resistant bacteria were measured using a modified microdilution method in Difco Mueller Hinton medium, and tests were done on a panel of bacterial pathogens which have resistance and tolerance against common antibiotics.
(§2) Briefly, a peptoid concentrate, which is 10-fold more concentrated than a final concentration, was serially diluted with a medium containing 0.2% bovine serum albumin and 0.01% acetic acid. 10 μL of the 10-fold concentrated peptoid concentrate and 90 μL of Muller Hinton medium were added to each well of a 96-well polypropylene microtitre plate. Bacteria were added to the plate so that a final concentration thereof was 2×10^5 CFU/mL, and then incubated overnight at a temperature of 37° C. The minimum inhibitory concentration was defined as a concentration at which no bacterial growth is observed.

[3] = system: S. epidermidis (ET-024 MRSA); assay: as above; type: cell-based; details: overnight, 37° C.
Protocol: as §1, §2

[4] = system: P. aeruginosa (198B MDR); assay: as above; type: cell-based; details: overnight, 37° C.
Protocol: as §1, §2

[5] = system: E. coli; assay: Selectivity analysis, HD10 divided by MIC for E. coli; details: HD10 of Table 6 divided by MIC for E. coli ATCC25922
Protocol: In order to identify changes in selectivity depending on alteration of degree of folding in helical structure of peptoids, selectivity of each peptoid was calculated using the resultant values measured in the Experimental Examples 1 and 2. The selectivity was obtained by dividing the HD10 value by the minimum inhibitory concentration for E. coli (Table 8).

[6] = Metabolic stability in human liver S9 fraction, HPLC; type: in vitro ADME; details: human
Protocol: In order to identify metabolic stability of the peptoids synthesized in Preparation Example 1, such peptoids were subjected to enzymatic reaction using S9 fraction which is a mixture of human liver tissue-extracted metabolic enzymes. Thereafter, for the reaction products, metabolites were quantitated using HPLC.
Specifically, Peptoid NOS. 1 and 4, and Pexiganan as a peptide control (40 μL each, 100 μM) were treated with […], 3.3 mM MgCl2, and 1.3 mM NADPH buffer (306 μL, pH=7.4), to prepare respective samples. The respective samples were treated with S9 fraction (2 μL, 0.1 mg/mL) and then incubated at a temperature of 37° C. When 0, 1, 4, and 24 hours had elapsed after treatment with the S9 fraction, 40 μL of each sample was taken out, and acetonitrile containing the same amount of 0.1% trifluoroacetic acid was used to stop activity of enzymes contained in the S9 fraction. Thereafter, proteins precipitated with acetonitrile were centrifuged at a condition of 1,000×g for 10 minutes at a temperature of 4° C. Then, supernatant was analyzed by HPLC to identify an amount of the remaining peptoid which had not been degraded by the enzymes in the S9 fraction.

[7] = system: S. aureus strain KCTC1621; type: cell-based; details: for MBC S. aureus: KCTC1621; for MIC S. aureus: KCTC1621, 18 h
Protocol: (§3) In order to measure antimicrobial activity of the peptoids, Gram-positive S. aureus strain KCTC1621, or Gram-negative E. coli strain ATCC25922 was treated with the peptoids prepared in Preparation Example 1, and minimum inhibitory concentrations were measured. Peptoid NOS. 1 and 2 are already known peptoids and were used for the purpose of making a comparison with novel peptoids in terms of antimicrobial activity.
(§4) Specifically, S. aureus strain KCTC1621 or E. coli strain ATCC25922 was inoculated into Mueller Hinton Broth (MHB2) liquid medium on which cations were adjusted, cultured at a temperature of 37° C. for 18 hours, and then subcultured for 4 hours. Thereafter, the strains were diluted with MHB2 liquid medium containing 0.2% bovine serum albumin and 0.01% acetic acid so that each bacterial number was 2×10^5 colony-forming units (CFU) per 1 mL, and dispensed into 96-well microtiter plates at 100 μL each. A peptoid stock which is 40-fold more concentrated than a concentration to be tested was added to each well at 2.5 μL or lower so that the peptoid stock was 2-fold serially diluted using sterile water. Thereafter, the plates were incubated at a temperature of 37° C. for 18 hours.
(§5) Thereafter, absorbance was measured at a wavelength of 600 nm using a microplate reader (Bio-Rad). The lowest peptoid concentration that completely suppresses growth of microorganisms was measured by a minimum inhibitory concentration (MIC) and a minimum bactericidal concentration (MBC), and the measurement results are shown in Table 5 below. Each of the MIC values was calculated as an average value of numerical values obtained through three independent experiments.

[8] = system: E. coli strain ATCC25922; type: cell-based; details: for MBC E. coli: ATCC25922; for MIC E. coli: ATCC25922, 18 h
Protocol: as §3, §4, §5

[9] = system: E. coli strain DH5α; assay: Antimicrobial activity of peptoids with altered cationic residues, MIC; type: cell-based; details: LB medium, 18 h
Protocol: (§6) In order to measure antimicrobial activity of the peptoids, Gram-positive B. subtilis or Gram-negative E. coli strain DH5α was treated with Peptoid NOS. 1, 18 to 23, and the peptide Pexiganan, and minimum inhibitory concentrations were measured. Peptoid NOS. 1 and 2, and the peptide Pexiganan are already known antimicrobial peptoids and peptides, and were used for the purpose of making a comparison with novel peptoids in terms of antimicrobial activity.
(§7) Specifically, B. subtilis or E. coli DHS a was inoculated into LB liquid medium, and cultured at a temperature of 37° C. for 18 hours. Thereafter, the bacteria were diluted with LB medium so that each bacterial number was 2×10^5 colony-forming units (CFU) per 1 mL, and dispensed into 96-well microtiter plates at 100 μL each. The peptoid, which is 2-fold serially diluted using sterile water, was added to each well at 100 μL each. The plates were incubated at a temperature of 37° C. for 18 hours.
as §5, with “(MIC),” for “(MIC) and a minimum bactericidal concentration (MBC),”, “12” for “5”, “minimum inhibitory concentration” for “MIC”

[10] = in vitro; type: cell-based; details: human
Protocol: In order to determine whether the peptoids were cytotoxic against human cell lines, […] cell line (Korean Cell Line Bank) which is a human lung cell line was cultured in a DMEM (Dulbecco's modified Eagle's medium) culture solution containing 10% (v/v) fetal bovine serum (FBS) at 5% CO2 and a temperature of 37° C. 100 μL of DMEM medium was dispensed into each well of a 96-well microtiter plate so that the number of cells was 1.3×10^4, and then incubated overnight at a temperature of 37° C. in a 5% CO2 incubator. In this case, a DMEM medium was used as a negative control. Thereafter, the peptoid which is 2-fold serially diluted using sterile water was added to each well, and then incubated for 24 hours.
After incubation, 20 μL of an MTS solution [3-(4,5-dimethylthiazol-2-yl)-5-(3-carboxymethoxyphenyl)-2-(4-sulfophenyl)-2H-tetrazolium, inner salt; MTS] was added thereto and incubated at a temperature of 37° C. for 4 hours. Thereafter, % survival was calculated by measuring absorbance at a wavelength of 490 nm using an ELISA reader. The % survival was calculated as a percentage obtained by dividing the absorbance value for a well-treated with the peptoid by the absorbance value for a well containing control cells which had not been treated with the peptoid.

[11] = system: B. subtilis; type: cell-based; details: 18 h
Protocol: as §6, §7
as §5, with “(MIC),” for “(MIC) and a minimum bactericidal concentration (MBC),”, “12” for “5”, “minimum inhibitory concentration” for “MIC”

[12] = system: E. coli (63103 ESBL); assay: MIC in multidrug-resistant bacteria panel, modified microdilution; type: cell-based; details: overnight, 37° C.
Protocol: as §1, §2

[13] = system: S. aureus (ATCC25923); assay: as above; type: cell-based; details: overnight, 37° C.
Protocol: as §1, §2

| Compound | HD10 [1] | HD50 [1] | minimum inhibitory concentration P. aeruginosa (PA01) [2] | minimum inhibitory concentration S. epidermidis (ET-024 MRSA) [3] | minimum inhibitory concentration P. aeruginosa (198B MDR) [4] | Selectivity [HD10/MIC (E. coli)] [5] | remaining amount after S9 fraction treatment ([6]; s9, 24 h) | remaining at 24 h, 11.5 μM ([6]; s9, pH 7.4) | MBC S. aureus [7] | MIC S. aureus [7] | MBC E. coli [8] | MIC E. coli [8] | MIC E. coli [9] | CC50 at 24 h [10] | MIC B. subtilis [11] | minimum inhibitory concentration E. coli (63103 ESBL) [12] | minimum inhibitory concentration S. aureus (ATCC25923) [13] |
| --- | --- | --- | --- | --- | --- | --- | --- | --- | --- | --- | --- | --- | --- | --- | --- | --- | --- |
| C[C@@H](c1ccccc1)N(CC(=O)N(CCCCN)CC(=O)N(CC(=O)N(CC(=O)N(CCCCN)CC(=O)N(CC(=O)N(CC(=O)N(CCCCN)CC(=O)N(CC(=O)N(CC(N)=O)Cc1ccccc1)Cc1ccccc1)Cc1ccccc1)Cc1ccccc1)Cc1ccccc1)Cc1ccccc1)C(=O)CN(Cc1ccccc1)C(=O)CNCCCCN [compound 4] (H-[Nlys][Nphe][Nspe][Nlys][Nphe][Nphe][Nlys][Nphe][Nphe][Nlys][Nphe][Nphe]-NH2) | 89.6 | > 200 | 6.3 | <0.8 to 0.8 | 6.3 | 7.1 | ≥ 60% | 74% | 3.1 µM (≈ 5.34 µg/mL) | 3.1 µM (≈ 5.34 µg/mL) | 25 µM (≈ 43 µg/mL) | 12.5 µM (≈ 21.5 µg/mL) |  |  |  |  |  |
| C[C@@H](c1ccc(Cl)cc1)N(CC(N)=O)C(=O)CN(C(=O)CN(CCCCN)C(=O)CN(C(=O)CN(C(=O)CN(CCCCN)C(=O)CN(C(=O)CN(C(=O)CN(CCCCN)C(=O)CN(C(=O)CN(C(=O)CNCCCCN)[C@@H](C)c1ccc(Cl)cc1)[C@@H](C)c1ccc(Cl)cc1)[C@@H](C)c1ccc(Cl)cc1)[C@@H](C)c1ccc(Cl)cc1)[C@@H](C)c1ccc(Cl)cc1)[C@@H](C)c1ccc(Cl)cc1)[C@@H](C)c1ccc(Cl)cc1 [compound 19] | < 6.25 | 10.4 |  |  |  |  |  |  |  |  |  |  | >6.1 µM | 3 µM | 6.1 µM (≈ 12.8 µg/mL) |  |  |
| C[C@@H](c1ccccc1)N(CC(=O)N(CCCCN)CC(=O)N(CC(=O)N(CC(=O)N(CCCCN)CC(=O)N(CC(=O)N(CC(N)=O)Cc1ccccc1)Cc1ccccc1)[C@@H](C)c1ccccc1)[C@@H](C)c1ccccc1)C(=O)CN(Cc1ccccc1)C(=O)CN(CCCCN)C(=O)CN(Cc1ccccc1)C(=O)CN(Cc1ccccc1)C(=O)CNCCCCN [compound 15] (H-[Nlys][Nphe][Nphe][Nlys][Nphe][Nspe][Nlys][Nspe][Nspe][Nlys][Nphe][Nphe]-NH2) | 26.8 | 155.8 |  | <0.8 to 0.8 | 6.3 | 2.1 |  |  | 3.1 µM (≈ 5.42 µg/mL) | 3.1 µM (≈ 5.42 µg/mL) | 25 µM (≈ 43.7 µg/mL) | 12.5 µM (≈ 21.9 µg/mL) |  |  |  | 6.3 | 3.1 |
| C[C@@H](c1ccccc1)N(CC(N)=O)C(=O)CN(Cc1ccccc1)C(=O)CN(CCCCN)C(=O)CN(Cc1ccccc1)C(=O)CN(Cc1ccccc1)C(=O)CN(CCCCN)C(=O)CN(Cc1ccccc1)C(=O)CN(Cc1ccccc1)C(=O)CN(CCCCN)C(=O)CN(C(=O)CN(C(=O)CNCCCCN)[C@@H](C)c1ccccc1)[C@@H](C)c1ccccc1 [compound 13] | 81.7 | > 200 | 6.3 | <0.8 to 0.8 | 6.3 | 3.3 |  |  | 6.3 µM (≈ 11 µg/mL) | 3.1 µM (≈ 5.42 µg/mL) | 25 µM (≈ 43.7 µg/mL) | 25 µM (≈ 43.7 µg/mL) |  |  |  | 6.3 | 3.1 |
| Cc1ccc([C@H](C)N(CC(N)=O)C(=O)CN(C(=O)CN(CCCCN)C(=O)CN(C(=O)CN(C(=O)CN(CCCCN)C(=O)CN(C(=O)CN(C(=O)CN(CCCCN)C(=O)CN(C(=O)CN(C(=O)CNCCCCN)[C@@H](C)c2ccc(C)cc2)[C@@H](C)c2ccc(C)cc2)[C@@H](C)c2ccc(C)cc2)[C@@H](C)c2ccc(C)cc2)[C@@H](C)c2ccc(C)cc2)[C@@H](C)c2ccc(C)cc2)[C@@H](C)c2ccc(C)cc2)cc1 [compound 20] | < 6.25 | 8.3 |  |  |  |  |  |  |  |  |  |  | >6.1 µM | 8 µM | 0.8 µM (≈ 1.55 µg/mL) |  |  |
